Results: patent US20110237629A1, “AMINO ACID ESTER PRODRUGS AND THE USE THEREOF” (Bayer Schering Pharma Aktiengesellschaft, priority 2008, published 2011)
Counter-ions that a name gives are not always drawn.

Experiments:
[1] = Stability in buffer at various pH values; format: physicochemical
Protocol: 0.3 mg of the test substance is weighed into a 2 ml HPLC vial and 0.5 ml of acetonitrile or acetonitrile/DMSO (9:1) is added. The substance is dissolved by putting the sample vessel in an ultrasonic bath for about 10 seconds. Then 0.5 ml of the respective buffer solution is added, and the sample is again treated in the ultrasonic bath.
(Buffer) solutions employed:
pH 4: 1 liter of Millipore water is adjusted to pH 4.0 with 1 N hydrochloric acid;
pH 5: 0.096 mol of citric acid and 0.2 mol of sodium hydroxide ad 1 liter of water;
pH 7.4: 90.0 g of sodium chloride, 13.61 g of potassium dihydrogen phosphate and 83.35 g of 1 N sodium hydroxide solution are made up to 1 liter with water; this solution is then further diluted 1:10 with Millipore water.
pH 8: 0.013 mol of borax and 0.021 mol of hydrochloric acid ad 1 liter of water.
5 μl portions of the test solution are analyzed by HPLC for their content of unchanged test substance, and of basic mother substance of the formula (A) formed, every hour over a period of 24 hours at 37° C. The percentage areas of the appropriate peaks are used for quantification.
HPLC method for example 1:
(§1) Agilent 1100 with DAD (G1315B), binary pump (G1312A), autosampler (G1329A), column oven (G1316A), thermostat (G1330B); column: Kromasil 100 C18, 125 mm×4 mm, 5 μm; column temperature: 30° C.; eluent A: water+5 ml perchloric acid/liter, eluent B: acetonitrile; gradient: 0 min 90% A→2.0 min 70% A→18.0 min 70% A 20.0 min 10% A→21.0 min 10% A→23.0 min 90% A→26.0 min 90% A; flow rate: 2.0 ml/min;
HPLC method for example 3:
as §1, with “(G1314A),” for “(G1315B),”, “(G1330A);” for “(G1330B);”, “64%” for “70%”, “64% A→20.0” for “70% A 20.0”, “ml/min UV detection: 294 nm.” for “ml/min;”
HPLC method for example 11:
as §1, with “ml of” for “ml”, “64%” for “70%”, “64% A→20.0” for “70% A 20.0”, “ml/min; UV detection: 294 nm.” for “ml/min;”
HPLC method for example 14:
Agilent 1100 with DAD (G1315B), binary pump (G1312A), autosampler (G1329A), column oven (G1316A), thermostat (G1330B); column: Kromasil 100 C18, 250 mm×4 mm, 5 μm; column temperature: 30° C.; eluent A: water+5 ml of perchloric acid/liter, eluent B: acetonitrile; gradient: 0 min 90% A→7.0 min 52% A→18.0 min 52% A→20.0 min 10% A→21.0 min 10% A→23.0 min 90% A -4 26.0 min 90% A; flow rate: 2.0 ml/min; UV detection: 288 nm.
HPLC method for example 18:
Agilent 1100 with DAD (G1315A), binary pump (G1312A), autosampler (G1329A), column oven (G1316A), thermostat (G1330A); column: Kromasil 100 C18, 125 mm×4 mm, 5 μm; column temperature: 30° C.; eluent A: water+5 ml of perchloric acid/liter, eluent B: acetonitrile; gradient: 0 min 90% A→6.0 min 61% A→18.0 min 61% A→20.0 min 10% A→21.0 min 10% A→23.0 min 90% A→26.0 min 90% A; flow rate: 2.0 ml/min; UV detection: 294 nm.
The ratios of the peak areas (F) at the respective time points in relation to the peak areas at the starting time are shown in Table 3 for representative exemplary embodiments: […]

[2] = i.v. pharmacokinetics in Wistar rats; format: in vivo; details: male Wistar rats, i.v. bolus, first measurement point
Protocol: On the day before administration of the substance, a catheter for obtaining blood is implanted in the jugular vein of the experimental animals (male Wistar rats, body weight 200-250 g) under Isofluran® anesthesia. On the day of the experiment, a defined dose of the test substance is administered as solution into the tail vein using a Hamilton® glass syringe (bolus administration, duration of administration <10 s). Blood samples (8-12 time points) are taken through the catheter sequentially over the course of 24 h after administration of the substance. Plasma is obtained by centrifuging the samples in heparinized tubes. Acetonitrile is added to a defined plasma volume per time point to precipitate proteins. After centrifugation, test substance and, where appropriate, known cleavage products of the test substance in the supernatant are determined quantitatively using a suitable LC/MS-MS method. […] Only the active ingredient (example 8A) was detectable up to the 8-hour time point too.

[3] = Determination of the solubility (suspension shaken 24 h at room temperature, HPLC of supernatant); format: physicochemical; details: thermodynamic from solid
Protocol: The test substance is suspended in water or dilute hydrochloric acid (pH 4) or in 5% strength aqueous dextrose solution. This suspension is shaken at room temperature for 24 h. After ultracentrifugation at 224 000 g for 30 min, the supernatant is diluted with DMSO and analysed by HPLC. A two-point calibration plot of the test compound in DMSO is used for quantification.
Agilent 1100 with DAD (G1315A), quat. Pump (G1311A), autosampler CTC HTS PAL, degasser (G1322A) and column thermostat (G1316A); column: Phenomenex Gemini C18, 5 μm, 50 mm×2 mm; temperature: 40° C.; eluent A: water/phosphoric acid pH 2, eluent B: acetonitrile; flow rate: 0.7 ml/min; gradient: 0-0.5 min 85% A, 15% B; ramp 0.5-3 min 10% A, 90% B; 3-3.5 min 10% A, 90% B; ramp 3.5-4 min 85% A, 15% B; 4-5 min 85% A, 15% B.
Agilent 1100 with DAD (G1315A), quat. pump (G1311A), autosampler CTC HTS PAL, degasser (G1322A) and column thermostat (G1316A); column: VDSoptilab Kromasil 100 C18, 3.5 μm, 60 mm×2.1 mm; temperature: 30° C.; eluent A: water+5 ml of perchloric acid/liter, eluent B: acetonitrile; flow rate: 0.75 ml/min; gradient: 0-0.5 min 98% A, 2% B; ramp 0.5-4.5 min 10% A, 90% B; 4.5-6 min 10% A, 90% B; ramp 6.5-6.7 min 98% A, 2% B; 6.7-7.5 min 98% A, 2% B.
The solubilities of representative exemplary embodiments in dilute hydrochloric acid (pH 4) are shown in Table1: […]

- % test substance after 4 h [F(t = 4 h) × 100/F(t = 0 h)] ([1]; pH 4, 37° C.): 99%
- % test substance after 24 h [F(t = 24 h) × 100/F(t = 0 h)] ([1]; pH 4, 37° C.): 98%
- % test substance after 4 h [F(t = 4 h) × 100/F(t = 0 h)] ([1]; pH 7.4, 37° C.): 90%
- % test substance after 24 h [F(t = 24 h) × 100/F(t = 0 h)] ([1]; pH 7.4, 37° C.): 53%
- detectability of the test substance (prodrug) in plasma after i.v. administration [2]: no longer detectable
- solubility at 24 h ([3]; aqueous buffer, dilute hydrochloric acid (pH 4)): > 500 µg/mL
- solubility at 24 h ([3]; saline or isotonic, 5% strength aqueous dextrose solution): > 500 µg/mL
Structure (SMILES): C[C@H](N)C(=O)OC[C@H](COc1ccc(-c2c(C#N)c(N)nc(SCc3coc(-c4ccc(Cl)cc4)n3)c2C#N)cc1)OC(=O)[C@H](C)N [Example 1, (2S)-3-{4-[2-Amino-6-({[2-(4-chlorophenyl)-1,3-oxazol-4-yl]methyl}sulfanyl)-3,5-dicyanopyridin-4-yl]phenoxy}propane-1,2-diyl(2S,2′S)-bis(2-aminopropanoate)dihydrochloride]
